Values quoted from earlier work as cited in US11647710B2, “Method for preparation of soybean leaf having high content of isoflavone derivative in dark condition and soybean leaf having high content of isoflavone derivative prepared thereby” (INDUSTRY-ACADEMIC COOPERATION FOUNDATION GYEONGSANG …, priority 2019, dated 2023).

Target: ER-beta (estrogen receptor beta) (Rattus norvegicus, UniProt Q62986)
Conditions: Endocrinology 1997, 863; cited from earlier work

Chain of ER-beta (estrogen receptor beta) (Q62986 whole entry): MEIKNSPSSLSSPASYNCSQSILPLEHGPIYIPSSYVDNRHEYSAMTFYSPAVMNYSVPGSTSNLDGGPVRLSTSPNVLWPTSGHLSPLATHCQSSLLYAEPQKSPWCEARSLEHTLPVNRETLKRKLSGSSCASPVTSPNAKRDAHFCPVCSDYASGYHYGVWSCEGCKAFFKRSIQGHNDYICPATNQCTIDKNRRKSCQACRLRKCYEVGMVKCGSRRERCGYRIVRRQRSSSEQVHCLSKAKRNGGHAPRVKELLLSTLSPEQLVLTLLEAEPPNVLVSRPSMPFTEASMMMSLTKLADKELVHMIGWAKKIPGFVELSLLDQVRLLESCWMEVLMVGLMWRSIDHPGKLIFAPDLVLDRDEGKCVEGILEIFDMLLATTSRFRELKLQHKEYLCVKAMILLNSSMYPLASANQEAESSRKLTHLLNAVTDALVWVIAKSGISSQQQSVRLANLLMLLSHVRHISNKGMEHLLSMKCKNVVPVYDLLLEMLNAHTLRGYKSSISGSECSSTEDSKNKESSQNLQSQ

## O=c1c(-c2ccc(O)cc2)coc2cc(O)ccc12 [daidzein]
  affinity for ER-beta: high affinity
